Measurements: US20210275680A1, “USE OF THE TAS1R3 PROTEIN AS A MARKER FOR THERAPEUTIC, DIAGNOSTIC, AND/OR PROGNOSTIC PURPOSES FOR TUMORS THAT EXPRESS SAID PROTEIN” (FUNDACIÓN INSITITUTO DE INVESTIGACIÓN SANITARIA DE SANTIAGO …, priority 2018, published 2021)

Tests used:
SW620 cells [1] = experiment: Cell proliferation of SW620 cells with free ligand in the medium (cell counting); format: cell-based, human
Method: FIG. 8. RT-PCR of the receptor when the cells are kept in contact with lactisole for 9 days, comparing it with the controls (SW620 cultured in medium with low glucose concentration) (A). Cell proliferation of SW620 cells cultured in medium with low glucose concentration, and increasing concentrations of lactisole (from 0.44 mg/mL to 7 mg/mL) for 72 h (B). Colony formation of control SW620 cells or in contact with the lactisole ligand, at a concentration of 3.5 mg/mL, after 15 days of culture (C). Beta-galactosidase staining, indicative of cellular senescence, in SW620 cells treated with lactisole (3.5 mg/mL for 72 hours, arrows show cells where staining can be seen) (D). Western blot showing the expression of different proteins involved in tumor progression in SW620 cells when they are exposed to different glucose concentrations (high and low) and lactisole (3.5 mg/ml) for 9 days (E). […] Cell proliferation studies were carried out in SW620 cells, FIG. 7A, cultured in medium with high and low glucose concentration. […] Photos were taken using the microscope (Leica DMIL® microscope) and subsequently they were trypsinized, and the number of cells was counted to make the comparison between these and the starting ones in order to observe the effect of the ligand on the cells. […]

[2] = Immunization of mice with TAS1R3 peptide, titration of bleeds; format: in vivo; conditions: 4 plus 2 doses of 50 μg of peptide
Method: The resulting protein was purified to homogeneity with a final purity of 90-95%, 2 mg conjugated to KLH, 3 mg conjugated to BSA. The design of the genomic construct was carried out based on the literature (Maitrepierre et al., 2012). Likewise, a study of storage buffer formulation was carried out to preserve the integrity of the protein (restricting the use of detergents and polysaccharides in the final formula). The batch obtained was aliquoted in labeled sterile vials and stored at −80° C. until use. After several immunizations of the mice with 4 plus 2 doses of 50 μg of peptide, the bleeds were titrated in order to evaluate the increase of the response against the peptide.

SW620 cells [3] = experiment: Beta-galactosidase staining for cellular senescence; format: cell-based, human; conditions: SW620, low glucose medium, 3.5 mg/mL, 72 hours (FIG. 8D)
Method: To determine whether after cell incubation with the ligand cell senescence is induced, 500,000 cells of the SW620 line were cultured in 6-well plates and medium with low glucose concentration. In several wells, ligand (3.5 mg/mL) was added. After 72 hours, the wells were washed and fixed (2% formaldehyde, 0.2% glutaraldehyde in PBS) for 15 minutes at room temperature. The solution was eliminated giving three washes with 1×PBS, and then the staining solution was applied, calculated for one milliliter of solution: 200 μL citric acid/phosphate buffer, pH 6.0 (dibasic sodium phosphate (Na2HPO4) 0.2 M+0.1 M citric acid), 30 μL 5 M NaCl, 50 μL potassium ferricyanide (K3[Fe(CN)6]) 100 mM, 50 μL potassium ferrocyanide (K4[Fe(CN)6]) 100 mM, 2 μL magnesium chloride (MgCl2) 1 M, 50 μL solution X-gal (20 mg/mL of 5-bromo-4-chloro-3-indolyl β D-galactopyranoside in […]) and 618 μL distilled water. It was incubated in the oven at 37° C. overnight, the wells were washed with distilled water in motion twice, to then apply PBS 1× and observe the possible senescent cells under the Vert microscope. Al, Zeiss®. Blue staining is observed, corresponding to cells in senescence.

SW620 cells [4] = experiment: Colony formation of SW620 cells with free ligand; format: cell-based, human; conditions: SW620, low glucose medium, 3.5 mg/mL ligand, 15 days, versus control SW620 (FIG. 8C)
Method: Cell proliferation studies were carried out in SW620 cells, FIG. 7A, cultured in medium with high and low glucose concentration. The cells were trypsinized and plated the same number of cells in order to count them at times 0, 24, 72, 96 and 168 hours, using for this the Neubauer chamber, after trypsinization thereof. In an analogous manner, cell proliferation studies were carried out in medium with the presence of free ligand, FIG. 8, which was added to the culture medium at different concentrations. Photos were taken using the microscope (Leica DMIL® microscope) and subsequently they were trypsinized, and the number of cells was counted to make the comparison between these and the starting ones in order to observe the effect of the ligand on the cells. […] However, when studies of colony formation were carried out, starting from an amount of 200 cells per well and waiting for 15 days, it was observed that cells cultured in medium with low concentration of glucose, and that express higher levels of receptor, formed more colonies than those grown in high glucose medium (FIG. 7B). For colony formation studies, 12 well plates were used, plating in different amounts of cells (200, 400,600 and 800 cells per well), in medium with high (4500 mg/L) and low (1000 mg/L) content of glucose. […]

p-ERK, p-AKT, IGF-IR = experiment: Western blot of proteins involved in tumor progression in SW620 cells; format: cell-based, human; conditions: SW620, lactisole 3.5 mg/ml or high glucose (HG), 9 days (FIG. 8E)
Method: FIG. 8. RT-PCR of the receptor when the cells are kept in contact with lactisole for 9 days, comparing it with the controls (SW620 cultured in medium with low glucose concentration) (A). Cell proliferation of SW620 cells cultured in medium with low glucose concentration, and increasing concentrations of lactisole (from 0.44 mg/mL to 7 mg/mL) for 72 h (B). Colony formation of control SW620 cells or in contact with the lactisole ligand, at a concentration of 3.5 mg/mL, after 15 days of culture (C). Beta-galactosidase staining, indicative of cellular senescence, in SW620 cells treated with lactisole (3.5 mg/mL for 72 hours, arrows show cells where staining can be seen) (D). […]
For the qualitative study of proteins, Western Blot was performed from proteins isolated from the SW620 cell line, and the results are shown in FIG. 6 (B). […] The total protein of each sample was quantified by the […] (conversion method of bicathionic to monocationic copper in alkaline conditions influenced by specific amino acids such as cysteine, cystine, tryptophan, tyrosine and also by the peptide chain; the amount of bicathionic copper will depend of the amount of these components and will be determined spectrophotopically) using the commercial kit DC-Assay (BIO-RAD®) and establishing a calibration line with bovine serum albumin (BSA, Sigma-Aldrich). […]

TAS1R3 receptor = experiment: RT-PCR of TAS1R3 receptor in SW620 cells kept in contact with lactisole; format: cell-based, human; conditions: SW620, low glucose medium, lactisole for 9 days, versus controls (FIG. 8A)
Method: Metastatic colon cells from the lymph node (SW620, CCL-227), colorectal adenocarcinoma epithelial cells (SW480, CCL-228), lung carcinoma epithelial cells (A549, CCL-185), and metastatic lung cells from the liver (H1755, CRL-5892), pancreatic carcinoma cells (MIA PaCa-2, CRL-1420), and glioblastoma cells (U118, HTB-15 and U87MG, HTB-14) were used. The SW620, SW480, A549, U118 and U87MG lines were maintained in DMEM HG medium (Dulbecco's Modified Eagle's Medium—High glucose, Sigma-Aldrich), and the H1755 line in RPMI 1640 medium (Gibco®, LifeTecnologies), both supplemented to the 10% with fetal bovine serum (Gibco®, LifeTecnologies) and 1% with antibiotic (penicillin and streptomycin, Sigma-Aldrich). For the quantitative analysis of the expression of TAS1R3, a polymerase chain reaction was carried out with reverse transcriptase (RT-PCR), starting from RNA extracted from all cell lines in culture. […] RNA extraction was carried out using the extraction kit (GeneJET RNA Purification Kit, ThermoScientic), and the analysis was carried out in a manner similar to that described in a previous paragraph. Once the procedure was finished, the data were analyzed.

Question: With “CFYDEKR [peptide derived from brazzein, brazzein peptide, ligand for TAS1R3]” as the molecule, how does the Cell proliferation (SW620 cells [1]; SW620, DMEM supplemented with different receptor ligands, extent depends on concentration and molecule (FIG. 8F)) read?
Answer: interfere with proliferation

Question: For “Acetyl-LSQQLRMKGDYVLGGC-amide (Ac-LSQQLRMKGDYVLGGC-NH2) [TAS1R3 N-terminal extracellular peptide immunogen, conjugated to KLH / BSA]”, which “Response against the peptide (titration of bleeds)” value [2] is on record?
Answer: some response against the peptide, although with very low values

Question: With `COc1ccc(OC(C)C(=O)O)cc1` (stereo not shown) [lactisole, Lactisole] as the molecule, how does the “Cellular senescence (beta-galactosidase staining)” value (SW620 cells [3]) read?
Answer: induction of cellular senescence

Question: And the Colony formation (SW620 cells [4])?
Answer: no representative colony formed on the plate was observed

Question: And the “Activation of pathways related to tumor progression (western blot)” value (p-ERK, p-AKT, IGF-IR)?
Answer: activates pathways related to tumor progression, such as p-ERK, p-AKT or IGF-IR

Question: And the “Expression of the TAS1R3 receptor (RT-PCR)” value (TAS1R3 receptor)?
Answer: increase in the expression of the receptor

Question: What about the Cell proliferation (SW620 cells [1]; SW620, low glucose medium, lactisole 0.44 to 7 mg/mL, 72 h, effect at higher concentrations (FIG. 8B)) of the same molecule?
Answer: interferes with cell proliferation
